Experimental findings from US6254899A, “Plant extract compositions, method of preparation, and pharmaceutical compositions containing them” (Laboratoires Remilea, priority 1999, dated 2001) are described below.

SMILES strings stand for the structures.

A short description of experiment [1]: Test of analgesic activity: phenyl benzoquinone (PBQ) induced abdominal cramps in mice. The format is in vivo, mice (male). Conditions: aspirin 100 mg/kg. As for the experimental part:
50 male mice of 20-24 g supplied by the company IFFA-CREDO (France) were divided into 5 batches. The products studied were administered: by oral route thirty minutes before injection of phenyl benzoquinone (PBQ): (PBQ 20 mg+alcohol 5 ml+water qsp 100 ml). by intraperitoneal route at the rate of 0.20 ml per mouse.
The products to be tested were suspended in the excipient HPMC (hydroxypropyl cellulose methyl).
The animals were treated as below: […]
4. Tanacetum parthenium 150 10 […]
Aspirin was used as the reference analgesic product.
PBQ induces abdominal cramps indicating the intensity of the pain. The number of cramps per mouse was measured 1 hr and 2 hrs after administration of the product tested (30 mn and 1 hr 30 minutes after injection of PBQ).
The results were expressed as the percentage: […]
Number of cramps of the control batch - number of cramps of
Number of cramps of the control batch

Experiment [2] is described as follows: Test of anti-inflammatory activity: carragheenin-induced podal edema in rats. It is filed as in vivo, rat (Ico male and female, Sprague Dawley). Here is the method:
1. Test of Anti-inflammatory Activity
Podal edema induced by carragheenin is used to evaulate the anti-inflammatory activity of the products tested.
The products were tested on Ico male rats and female rats (Sprague Dawley) of approximately 250 g provided by the company IFFA-CREDO.
The products tested were suspended in the hydroxypropyl methyl cellulose (HPMC).
A volume of 5 ml per kg of body weight was administered to the animals by oral route according to the protocol detained in the table below.
Batch Salix Tanacetum Copper Quantity Volume
no. alba parthenium gluconate of excipient administered
Batch / 900 mg / 15.0 ml) 5 ml/kg
The control animals received either the placebo (T+), i.e. solely the HPMC, or indomethacin (T-) by oral route.
The treatment took place two hours before the experiment. One hour after oral administration of the product to be tested, all the animals received 0.2 ml of a 2% solution of carragheenin (Satia) in a 0.9% solution of sodium chloride at by injection in the right back paw (T0).
The podal volume of each rat was measured using a plethysmometer. The podal edema of each animal was measured at times T0, T0 +60 minutes, T0 +120 minutes, T0 +240 minutes.
The results were expressed in average percentages of inflammation relative to the control values (T^+) before the treatment and at each of the measuring times as well as in the percentage reduction of the edema compared to a control before the treatment and against each of the measuring times.

Take `CC(=O)Oc1ccccc1C(=O)O` [aspirin]: the “Reduction of number of abdominal cramps, 1 hr” value in experiment [1] (60 mins after administration, Salix alba 150 mg/kg) was found to be 33%. Moreover, the “Reduction of number of abdominal cramps, 2 hrs” value in experiment [1] (120 mins after administration, Salix alba or Tanacetum parthenium 150 mg/kg) is listed as 55%.

Regarding `COc1ccc2c(c1)c(CC(=O)O)c(C)n2C(=O)c1ccc(Cl)cc1` [Indomethacin], the “% change of inflammation compared with the control (T+), 1 hour” value in experiment [2] (1 hour, "-" reduction, "+" increase in inflammation) is -16.74%. In addition, the “% change of inflammation compared with the control (T+), 2 hours” value in experiment [2] (2 hours, "-" reduction, "+" increase in inflammation) was -36.7%. In addition, the “% change of inflammation compared with the control (T+), 4 hours” value in experiment [2] (4 hours, "-" reduction, "+" increase in inflammation) was -50.38%. Besides, the “% inflammation after 1 hour” value in experiment [2] (oral, 5 ml/kg, 1 hour) came out at 38.34%. For the same compound, the “% inflammation after 2 hours” value in experiment [2] (oral, 5 ml/kg, 2 hours) is 51.85%. Also, the “% inflammation after 4 hours” value in experiment [2] (oral, 5 ml/kg, 4 hours) is 71.38%.
